This note sets out measurements from US11168054B2, “Biaromatic compounds, which are vitamin D analogs” (DSM IP ASSETS B.V., priority 2015, dated 2021).

Structures are written as SMILES.

The target in the assay is T1, ligand-binding domain of the human VDR linked to the DNA-binding domain of the yeast transcription factor GAL4 (Homo sapiens, UniProt P11473).
T1 construct: expressed in transfected cells; host or cells: HEK293
T1 sequence (P11473 127-423 limits assumed): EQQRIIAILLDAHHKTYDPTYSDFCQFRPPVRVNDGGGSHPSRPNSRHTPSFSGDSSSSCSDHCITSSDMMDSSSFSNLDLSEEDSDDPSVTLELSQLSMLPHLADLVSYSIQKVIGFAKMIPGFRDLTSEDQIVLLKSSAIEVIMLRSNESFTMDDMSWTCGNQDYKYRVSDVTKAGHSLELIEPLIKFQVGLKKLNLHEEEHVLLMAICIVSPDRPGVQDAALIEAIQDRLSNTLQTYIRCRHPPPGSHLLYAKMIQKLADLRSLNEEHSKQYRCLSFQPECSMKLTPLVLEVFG
Briefly: Human vitamin D receptor (VDR) agonist activity, cell based GAL4 hybrid luciferase transactivation assay. Conditions: HEK293 cells transiently transfected with VDR-LBD/GAL4 hybrid receptor and pFR-Luc reporter; 16 h incubation; luciferase luminescence; read-out: Effective concentrations of half maximal activation (EC50). The source says: By way of example, the human vitamin D receptor (VDR) agonist activity of the claimed compounds can be tested using a cell based transactivation assay in an eukaryotic cell line. After a co-transfection, using a reporter plasmid construct and a hybrid receptor construct containing the ligand-binding domain of the human VDR linked to the DNA-binding domain of the yeast transcription factor GAL4, the cultured cells were stimulated by the VDR agonists. The hybrid VDR-GAL4 receptor binds the VDR agonists and transactivates luciferase reporter expression through the GAL4-response elements in the promoter of the luciferase gene (reporter construct). The VDR agonist binding and transactivation is determined by measuring the luciferase luminescence activity. The effective concentration of half maximal activation (EC50) was determined for the VDR agonists by means of dose-response experiments. The details of the protocol method of this test according to the invention are described in the example section.
Testing of the Human Vitamin D Receptor (VDR) Agonist Activity of the Compounds
The transient transfections were performed in HEK293 cells (ATCC, Molsheim, France) grown in minimum essential medium (Eagle) with Earle's balanced salt solution without L-glutamine and supplemented with 10% fetal bovine serum (Sigma-Aldrich Corp., St. Gallen, Switzerland), 2 mM glutamax (Life Technologies AG, Basel, Switzerland), 0.1 mM non-essential amino acids (Life Technologies), and 1 mM sodium pyruvate (Life Technologies) at 37° C. in 5% CO2. […] The cells were transiently transfected before stimulation the next day at >80% confluence by polyethylene-imine-based transfection. Compound stocks were prepared in DMSO, pre-diluted in PBS (0.45% final DMSO concentration), and added in the respective dilution 5 h after the addition of the transfection mixture onto the cells. The cells were again incubated for additional 16 h before firefly and renilla luciferases activity was measured sequentially in the same cell extract using buffers according to established protocols (Promega AG, Dübendorf, Switzerland). Transfection efficiency was controlled to the pRL-TK renilla luciferase reporter expression.
Take `CCCC1C(O)c2ccc(CCc3cccc(/C(=C/C=C/C(O)(CC)CC)CC)c3)cc2C1O` (stereo not shown) [Comp1, reference compound]: the EC50 worked out at 210 nM.

`CC/C(=C\C=C\C(O)(CC)CC)c1cccc(CCc2ccc3c(c2)C(O)C(C)(C)C3O)c1` (stereo not shown) [I-a, (5-(3-((3E,5E)-7-ethyl-7-hydroxynona-3,5-dien-3-yl)phenethyl)-2,2-dimethyl-2,3-dihydro-1H-indene-1,3-diol)]: the EC50 was determined as 14 nM.

On to `CC/C(=C\C=C\C(O)(CC)CC)c1cccc(CCc2ccc3c(c2)C(O)C(C)C3O)c1` (stereo not shown) [I-b, 5-(3-((3E,5E)-7-ethyl-7-hydroxynona-3,5-dien-3-yl)phenethyl)-2-methyl-2,3-dihydro-1H-indene-1,3-diol], for which the EC50 amounted to 34 nM.

Take `CC/C(=C\C=C\C(O)(CC)CC)c1cccc(CCc2ccc3c(c2)C(O)CC3O)c1` (stereo not shown) [I-c, 5-(3-((3E,5E)-7-ethyl-7-hydroxynona-3,5-dien-3-yl)phenethyl)-2,3-dihydro-M-indene-1,3-diol]: the EC50 worked out at 49 nM.
